The subject of assay [1] is H838 cells. Format: cell-based, human. The settings on record: 24 h; SD. As for the experimental part:
(§1) MTT (3-(4, 5-dimethylthiazol-2-yl)-2, 5-diphenyltetrazolium bromide) cell viability assay was performed to evaluate the cell proliferation inhibitory rate of synthetic peptides in a series of human cell lines: PC-3 (ATCC® CRL-1435™), H157 (RRID: CVCL_0463), H460 (ATCC® HTB-177™), H838 (ATCC® CRL-5844™), H23 (ATCC® CRL-5800™), MCF-7 (ATCC® HTB-22™), HCT116 (ATCC® CCL-247™), U251MG (ECACC-09063001) and HMEC-1 (ATCC® CRL-3243™) which was detailed in the previous report.

The subject of assay [2] is HMEC-1 cells. Format: cell-based, human. To be noted: 24 h; SD. The method, then:
as §1

For assay [3], the system named is MCF-7 cells. Format: cell-based, human. The settings on record: 24 h; SD. As for the experimental part: as §1
The subject of assay [4] is H460 cells. The class given is cell-based, human. To be noted: 24 h; SD. As for the experimental part: as §1
Assay [5] has as its system PC-3 cells. Format: cell-based, human. The settings on record: 24 h; SD. The method, then:
as §1

Assay [6] concerns H23 cells. The class given is cell-based, human. To be noted: 24 h; SD. As for the experimental part:
as §1

The test system of assay [7] is H157 cells. The class given is cell-based, human. The settings on record: 24 h; SD. As for the experimental part:
as §1

Assay [8] addresses chymotrypsin (Bos taurus, UniProt P00766). Nature of the assay: biochemical.
Experimental: Ten microliters of trypsin/chymotrypsin (Sigma Aldrich, Dorset, UK) working solution (0.1 µM in 1 mM HCl) was added into the wells of a black micro-titre plate with corresponding substrate and peptide replicates (0.1–100 µM) in 10 mM phosphate buffer (final volume 210 μL). Additionally, Phe-Pro-Arg- NHMec (Bachem, Cambridge, UK) and Succinyl-Ala-Ala-Pro-Phe-NHMec (Bachem, Cambridge, UK) were performed as substrates for trypsin and chymotrypsin, respectively. The fluorescence intensity of NHMec was monitored at 37 °C continuously for 30 min by a FLUOstar OPTIMA multi-well plate reader (BMG Labtech, Ortenberg, Germany) at wavelengths of 460 nm for emission and 395 nm for excitation.
Assay [9] concerns Staphylococcus aureus (ATCC 12600). Format: cell-based. As for the experimental part: (§2) Antimicrobial activity of the synthetic peptides was assessed by determination of MIC/MBC on Escherichia coli (ATCC 11775), Staphylococcus aureus (ATCC 12600), Candida albicans (NCYC 1467) and methicillin-resistant Staphylococcus aureus (MRSA) (NCTC 12493) according to the previous report. Briefly, the test microorganism was inoculated in Mueller Hinton Broth (MHB) medium and incubated overnight at 37 °C. Then the subculture was performed until the optical density (OD) reached the logarithmic growth phase and diluted to 1 × 10^6 colony forming units (CFU)/mL for bacteria and 1 × 10^5 CFU/mL for fungus obtained. The synthetic peptides with the concentration from 1 to 512 µM were double diluted by PBS. Five replications of sterile control, vehicle control and growth control were set as 100 µL MHB/well, 100 µL 1% PBS with subculture solution/well and 100 µl subculture solution/well, respectively. The 96-well plate was incubated at 37 °C overnight. The absorbance of each well at 550 nm was measured by Synergy HT plate reader (Biotech, Minneapolis, MN, USA). The minimum bactericidal concentration was detected by sub-culturing treated samples onto Mueller-Hinton agar (MHA) plate for another eighteen hours at 37 °C.

Assay [10] deals with Escherichia coli (ATCC 11775). Format: cell-based. The method, then: as §2
Assay [11] concerns methicillin-resistant Staphylococcus aureus (MRSA) (NCTC 12493). The class given is cell-based. The method, then: as §2
The test system of assay [12] is Candida albicans (NCYC 1467). The class given is cell-based. As for the experimental part:
as §2

Structures are written as SMILES. Where a SMILES comes first, the peptide text is derived from it. Bridges are numbered along the chain shown (N, C = ends). Some results are limits rather than exact numbers.

By IC50 is commonly meant the concentration needed to halve the response being measured. Read a low IC50 as higher potency. In general, Ki refers to the dissociation constant of the complex between target and ligand, obtained from inhibition or displacement. Turning to `CC[C@H](C)[C@@H]1NC(=O)[C@H](CO)NC(=O)[C@H](Cc2ccccc2)NC(=O)[C@H]([C@@H](C)O)NC(=O)[C@H](Cc2c[nH]c3ccccc23)NC(=O)[C@@H](NC(=O)CNC(=O)[C@H](CCCNC(=N)N)NC(=O)[C@H](CC(C)C)NC(=O)[C@H](C)NC(=O)[C@@H](N)CO)CSSC[C@@H](C(=O)N[C@@H](CC(C)C)C(N)=O)NC(=O)[C@@H]2CCCN2C(=O)[C@H](CCCCN)NC(=O)[C@@H]2CCCN2C(=O)[C@@H]2CCCN2C1=O` [F-SL] (H-SALRGCWTFSIPPKPCL-NH2; disulfide 6-16), the IC50 in assay [1] stood at 59.7 ± 2.72 µM; in [2] it was 574 ± 9.41 µM; in assay [3], 202 ± 10.6 µM; in assay [4] it was 66 ± 2.64 µM; in assay [5], 159 ± 6.44 µM; in assay [6], 79.1 ± 6.41 µM. Further, the midpoint of inhibition in assay [7], the IC50, lay at 101 ± 1.74 µM. Further, the affinity in [8] corresponds to a Ki of 0.309 µM. Also, the “MBC, S. aureus” value in [9] is above 512 µM. Besides, the “MIC, S. aureus” value in [9] was above 512 µM. The “MBC, E. coli” value in assay [10] is above 512 µM. Further, in assay [10], the “MIC, E. coli” value is above 512 µM. Also, the “MBC, MRSA” value in assay [11] is above 512 µM. In addition, the “MIC, MRSA” value in assay [11] is above 512 µM. In addition, the “MBC, C. albicans” value in [12] is above 512 µM. For the same compound, the “MIC, C. albicans” value in assay [12] is above 512 µM.

As for `CC[C@H](C)[C@@H]1NC(=O)[C@H](CO)NC(=O)[C@H](CCCCN)NC(=O)[C@H]([C@@H](C)O)NC(=O)[C@H](Cc2c[nH]c3ccccc23)NC(=O)[C@@H](NC(=O)CNC(=O)[C@H](CCCNC(=N)N)NC(=O)[C@H](CC(C)C)NC(=O)[C@H](C)NC(=O)[C@H](C)N)CSSC[C@@H](C(=O)N[C@@H](CCCCN)C(N)=O)NC(=O)[C@@H]2CCCN2C(=O)[C@H](CCCCN)NC(=O)[C@@H]2CCCN2C(=O)[C@@H]2CCCN2C1=O` [K-SL] (H-AALRGCWTKSIPPKPCK-NH2; disulfide 6-16), the “MBC, S. aureus” value in [9] was 64/64 μM. Also, the “MBC, E. coli” value in assay [10] is 128/128 μM. In assay [11], the “MBC, MRSA” value is above 512 µM and the “MIC, MRSA” value was above 512 µM. The “MBC, C. albicans” value in assay [12] is given as 64/64 μM.

Regarding `CC(C)C[C@H](NC(=O)[C@@H]1CSSC[C@H](NC(=O)CNC(=O)[C@H](CCCNC(=N)N)NC(=O)[C@H](CC(C)C)NC(=O)[C@H](C)NC(=O)[C@@H](N)CO)C(=O)N[C@@H](Cc2c[nH]c3ccccc23)C(=O)N[C@@H]([C@@H](C)O)C(=O)N[C@@H](CCCCN)C(=O)N[C@@H](CO)C(=O)N[C@@H](Cc2ccc(O)cc2)C(=O)N2CCC[C@H]2C(=O)N2CCC[C@H]2C(=O)N[C@@H](CCCCN)C(=O)N2CCC[C@H]2C(=O)N1)C(N)=O` [SL-BBI] (H-SALRGCWTKSYPPKPCL-NH2; disulfide 6-16), in assay [9], the MBC, S. aureus worked out at 256 µM and the MIC, S. aureus was determined as 256 µM. Besides, in assay [10], the “MBC, E. coli” value is 128/128 μM. For the same compound, in assay [11], the “MBC, MRSA” value is above 512 µM and the “MIC, MRSA” value is above 512 µM. Besides, in assay [12], the MBC, C. albicans stood at 256 µM and the MIC, C. albicans was determined as 256 µM.

Source of the values: publication PMC7565067, “Identification and Target-Modification of SL-BBI: A Novel Bowman–Birk Type Trypsin Inhibitor from Sylvirana latouchii” (Biomolecules, 2020).
